Reference: US12077503B2, “Substituted cyclic amides and their use as herbicides” (FMC CORPORATION, priority 2015, dated 2024)

Assays:
Assay type in all cases: in vivo
[1] = tested on: rice (Oryra sativa); test: Test B flooded paddy test; settings: Oryza sativa, 360 h, Flood, 250 g ai/ha; visually evaluated after 13 to 15 d; read-out: Plant response rating, Rice (0 to 100 scale where 0 is no effect and 100 is complete control)
How it was run: (§1)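 Compound goes directly into floodwater once pots are flooded 3 cm above soil, targeting plants at two leaves; the water depth is then held for the test duration. Plants sit 13–15 d in a greenhouse and are rated visually, 100 denoting complete control.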

[2] = tested on: barnyardgrass (Echinochloa crus-galli); test: Test B flooded paddy test; settings: Echinochloa crus-galli, 360 h, Flood, 250 g ai/ha; visually evaluated after 13 to 15 d; read-out: Plant response rating, Barnyardgrass (0 to 100 scale where 0 is no effect and 100 is complete control)
How it was run: as §1

[3] = tested on: sedge, umbrella (small-flower umbrella sedge, Cyperus difformis); test: Test B flooded paddy test; settings: Cyperus difformis, 360 h, Flood, 250 g ai/ha; visually evaluated after 13 to 15 d; read-out: Plant response rating, Sedge, Umbrella (0 to 100 scale where 0 is no effect and 100 is complete control)
How it was run: as §1

[4] = tested on: ducksalad (Heteranthera limosa); test: Test B flooded paddy test; settings: Heteranthera limosa, 360 h, Flood, 250 g ai/ha; visually evaluated after 13 to 15 d; read-out: Plant response rating, Ducksalad (0 to 100 scale where 0 is no effect and 100 is complete control)
How it was run: as §1

[5] = tested on: Kochia (Kochia scoparia); test: Test A postemergence; settings: Bassia scoparia, post-emergence, 240 h, Postemergence, read-out: Kochia plant response rating (0 to 100 scale); for pest or weed control at 125 g/ha: 125 g ai/ha, visual rating about 10 d after treatment; for pest or weed control at 31 g/ha: 31 g ai/ha, 0 is no effect, 100 is complete control
How it was run: (§2)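 Visual injury, scored on a 0–100 scale relative to untreated controls, was recorded about 10 d after application. Treatments were a preemergence soil spray over planted seeds or a postemergence spray on plants at the one- to two-leaf stage, 2 to 10 cm tall, all in loam soil–sand blend in the greenhouse.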

[6] = tested on: giant foxtail (Setaria faberii); test: Test A postemergence; settings: Setaria faberi, post-emergence, 240 h, Postemergence, read-out: Foxtail, Giant plant response rating (0 to 100 scale); for pest or weed control at 125 g/ha: 125 g ai/ha, visual rating about 10 d after treatment; for pest or weed control at 31 g/ha: 31 g ai/ha, 0 is no effect, 100 is complete control
How it was run: as §2

[7] = tested on: Galium (catchweed bedstraw, Galium aparine); test: Test A postemergence; settings: Galium, post-emergence, 240 h, Postemergence, read-out: Galium plant response rating (0 to 100 scale); for pest or weed control at 125 g/ha: 125 g ai/ha, visual rating about 10 d after treatment; for pest or weed control at 31 g/ha: 31 g ai/ha, 0 is no effect, 100 is complete control
How it was run: as §2

[8] = tested on: ragweed (common ragweed, Ambrosia elatior); test: Test A postemergence; settings: Ambrosia artemisiifolia, post-emergence, 240 h, Postemergence, read-out: Ragweed plant response rating (0 to 100 scale); for pest or weed control at 125 g/ha: 125 g ai/ha, visual rating about 10 d after treatment; for pest or weed control at 31 g/ha: 31 g ai/ha, 0 is no effect, 100 is complete control
How it was run: as §2

[9] = tested on: blackgrass (Alopecurus myosuroides); test: Test A postemergence; settings: Alopecurus myosuroides, post-emergence, 240 h, Postemergence, read-out: Blackgrass plant response rating (0 to 100 scale); for pest or weed control at 125 g/ha: 125 g ai/ha, visual rating about 10 d after treatment; for pest or weed control at 31 g/ha: 31 g ai/ha, 0 is no effect, 100 is complete control
How it was run: as §2

[10] = tested on: barnyardgrass (Echinochloa crus-galli); test: Test A postemergence; settings: Echinochloa crus-galli, post-emergence, 240 h, Postemergence; for pest or weed control at 125 g/ha: 125 g ai/ha, visual rating about 10 d after treatment, read-out: Barnyardgrass plant response rating (0 to 100 scale, 0 no effect, 100 complete control); for pest or weed control at 31 g/ha: 31 g ai/ha, 0 is no effect, 100 is complete control, read-out: Barnyardgrass plant response rating (0 to 100 scale)
How it was run: as §2

[11] = tested on: corn (Zea mays); test: Test A postemergence; settings: Zea mays, post-emergence, 240 h, Postemergence, read-out: Corn plant response rating (0 to 100 scale); for plant injury at 125 g/ha: 125 g ai/ha, visual rating about 10 d after treatment; for plant injury at 31 g/ha: 31 g ai/ha, 0 is no effect, 100 is complete control
How it was run: as §2

[12] = tested on: pigweed (Amaranthus retroflexus); test: Test A postemergence; settings: Amaranthus retroflexus, post-emergence, 240 h, Postemergence, read-out: Pigweed plant response rating (0 to 100 scale); for pest or weed control at 125 g/ha: 125 g ai/ha, visual rating about 10 d after treatment; for pest or weed control at 31 g/ha: 31 g ai/ha, 0 is no effect, 100 is complete control
How it was run: as §2

[13] = tested on: wheat (Triticum aestivum); test: Test A postemergence; settings: Triticum aestivum, post-emergence, 240 h, Postemergence, read-out: Wheat plant response rating (0 to 100 scale); for plant injury at 125 g/ha: 125 g ai/ha, visual rating about 10 d after treatment; for plant injury at 31 g/ha: 31 g ai/ha, 0 is no effect, 100 is complete control
How it was run: as §2

[14] = tested on: ryegrass, Italian (Italian ryegrass, Lolium multiflorum); test: Test A postemergence; settings: Lolium multiflorum, post-emergence, 240 h, Postemergence, read-out: Ryegrass, Italian plant response rating (0 to 100 scale); for pest or weed control at 125 g/ha: 125 g ai/ha, visual rating about 10 d after treatment; for pest or weed control at 31 g/ha: 31 g ai/ha, 0 is no effect, 100 is complete control
How it was run: as §2

[15] = tested on: Kochia (Kochia scoparia); test: Test A preemergence; settings: Bassia scoparia, pre-emergence, 240 h, Preemergence; for pest or weed control at 31 g/ha: 31 g ai/ha, 0 to 100 scale where 0 is no effect and 100 is complete control, read-out: Kochia plant response rating; for pest or weed control at 125 g/ha: 125 g ai/ha, 0 to 100 scale (0 no effect, 100 complete control), read-out: Plant response rating, Kochia
How it was run: as §2

[16] = tested on: giant foxtail (Setaria faberii); test: Test A preemergence; settings: Setaria faberi, pre-emergence, 240 h, Preemergence; for pest or weed control at 31 g/ha: 31 g ai/ha, 0 to 100 scale where 0 is no effect and 100 is complete control, read-out: Foxtail, Giant plant response rating; for pest or weed control at 125 g/ha: 125 g ai/ha, 0 to 100 scale (0 no effect, 100 complete control), read-out: Plant response rating, Foxtail, Giant
How it was run: as §2

[17] = tested on: ragweed (common ragweed, Ambrosia elatior); test: Test A preemergence; settings: Ambrosia artemisiifolia, pre-emergence, 240 h, Preemergence; for pest or weed control at 31 g/ha: 31 g ai/ha, 0 to 100 scale where 0 is no effect and 100 is complete control, read-out: Ragweed plant response rating; for pest or weed control at 125 g/ha: 125 g ai/ha, 0 to 100 scale (0 no effect, 100 complete control), read-out: Plant response rating, Ragweed
How it was run: as §2

[18] = tested on: barnyardgrass (Echinochloa crus-galli); test: Test A preemergence; settings: Echinochloa crus-galli, pre-emergence, 240 h, Preemergence; for pest or weed control at 31 g/ha: 31 g ai/ha, 0 to 100 scale where 0 is no effect and 100 is complete control, read-out: Barnyardgrass plant response rating; for pest or weed control at 125 g/ha: 125 g ai/ha, 0 to 100 scale (0 no effect, 100 complete control), read-out: Plant response rating, Barnyardgrass
How it was run: as §2

[19] = tested on: pigweed (Amaranthus retroflexus); test: Test A preemergence; settings: Amaranthus retroflexus, pre-emergence, 240 h, Preemergence; for pest or weed control at 31 g/ha: 31 g ai/ha, 0 to 100 scale where 0 is no effect and 100 is complete control, read-out: Pigweed plant response rating; for pest or weed control at 125 g/ha: 125 g ai/ha, 0 to 100 scale (0 no effect, 100 complete control), read-out: Plant response rating, Pigweed
[20] = tested on: ryegrass, Italian (Italian ryegrass, Lolium multiflorum); test: Test A preemergence; settings: Lolium multiflorum, pre-emergence, 240 h, Preemergence; for pest or weed control at 31 g/ha: 31 g ai/ha, 0 to 100 scale where 0 is no effect and 100 is complete control, read-out: Ryegrass, Italian plant response rating; for pest or weed control at 125 g/ha: 125 g ai/ha, 0 to 100 scale (0 no effect, 100 complete control), read-out: Plant response rating, Ryegrass, Italian
How it was run: as §2

With CN1C[C@H](c2ccc(C(F)(F)F)cc2)[C@@H](C(=O)Nc2ccc(F)nc2F)C1=O [Compound 1347] the pest or weed control at 250 g/ha [1] was 0%, the pest or weed control at 250 g/ha [2] was 90% and the pest or weed control at 250 g/ha [3] was 0%. For the same compound, the pest or weed control at 250 g/ha [4] was 98%, the pest or weed control at 125 g/ha [5] was 80% and the pest or weed control at 31 g/ha [5] was 60%. For the same compound, the pest or weed control at 125 g/ha [6] was 90%, the pest or weed control at 31 g/ha [6] was 70% and the pest or weed control at 125 g/ha [7] was 70%. The pest or weed control at 31 g/ha [7] was 70%, the pest or weed control at 125 g/ha [8] was 70% and the pest or weed control at 31 g/ha [8] was 40%. For the same compound, the pest or weed control at 125 g/ha [9] was 60%, the pest or weed control at 31 g/ha [9] was 30% and the pest or weed control at 125 g/ha [10] was 90%. For the same compound, the pest or weed control at 31 g/ha [10] was 70%, the plant injury at 125 g/ha [11] was 30% and the plant injury at 31 g/ha [11] was 30%. For the same compound, the pest or weed control at 125 g/ha [12] was 90%, the pest or weed control at 31 g/ha [12] was 50% and the plant injury at 125 g/ha [13] was 30%. The plant injury at 31 g/ha [13] was 20%, the pest or weed control at 125 g/ha [14] was 40% and the pest or weed control at 31 g/ha [14] was 0%. The pest or weed control at 31 g/ha [15] was 90%, the pest or weed control at 125 g/ha [15] was 90% and the pest or weed control at 31 g/ha [16] was 100%. For the same compound, the pest or weed control at 125 g/ha [16] was 100%, the pest or weed control at 31 g/ha [17] was 30% and the pest or weed control at 125 g/ha [17] was 90%. The pest or weed control at 31 g/ha [18] was 80%, the pest or weed control at 125 g/ha [18] was 100% and the pest or weed control at 31 g/ha [19] was 90%. For the same compound, the pest or weed control at 125 g/ha [19] was 100%, the pest or weed control at 31 g/ha [20] was 0% and the pest or weed control at 125 g/ha [20] was 30%.
Cc1cccc([C@H]2CN(C)C(=O)[C@@H]2C(=O)Nc2ccc(F)nc2F)c1 [Compound 1349] gave a pest or weed control at 250 g/ha [1] of 0%, a pest or weed control at 250 g/ha [2] of 90% and a pest or weed control at 250 g/ha [3] of 0%. The pest or weed control at 250 g/ha [4] was 95%, the pest or weed control at 125 g/ha [5] was 30% and the pest or weed control at 31 g/ha [5] was 0%. For the same compound, the pest or weed control at 125 g/ha [6] was 80%, the pest or weed control at 31 g/ha [6] was 60% and the pest or weed control at 125 g/ha [7] was 60%. It also gave a pest or weed control at 31 g/ha [7] of 30%, a pest or weed control at 125 g/ha [8] of 0% and a pest or weed control at 31 g/ha [8] of 0%. For the same compound, the pest or weed control at 125 g/ha [9] was 20%, the pest or weed control at 31 g/ha [9] was 0% and the pest or weed control at 125 g/ha [10] was 90%. The pest or weed control at 31 g/ha [10] was 70%, the plant injury at 125 g/ha [11] was 0% and the plant injury at 31 g/ha [11] was 0%. The pest or weed control at 125 g/ha [12] was 0%, the pest or weed control at 31 g/ha [12] was 0% and the plant injury at 125 g/ha [13] was 0%. For the same compound, the plant injury at 31 g/ha [13] was 0%, the pest or weed control at 125 g/ha [14] was 20% and the pest or weed control at 31 g/ha [14] was 0%. The pest or weed control at 31 g/ha [15] was 0%, the pest or weed control at 125 g/ha [15] was 20% and the pest or weed control at 31 g/ha [16] was 100%. The pest or weed control at 125 g/ha [16] was 100%, the pest or weed control at 31 g/ha [17] was 0% and the pest or weed control at 125 g/ha [17] was 0%. For the same compound, the pest or weed control at 31 g/ha [18] was 20%, the pest or weed control at 125 g/ha [18] was 100% and the pest or weed control at 31 g/ha [19] was 0%. It also gave a pest or weed control at 125 g/ha [19] of 0%, a pest or weed control at 31 g/ha [20] of 0% and a pest or weed control at 125 g/ha [20] of 0%.
